Measured values: US20220117938A1, “COMBINATON THERAPY WITH A DON PRODRUG AND AN IMMUNE CHECKPOINT INHIBITOR” (DRACEN PHARMACEUTICALS, INC., priority 2019, published 2022)

Test system: MC-38 tumors
Experiment: Anti-tumor efficacy of Compound 1 in the subcutaneous MC-38 model: schedule comparison (Example 3)
Type: in vivo, Mus musculus
Description: Female C57BL/6 mice were inoculated subcutaneously at right flank with MC-38 cells for tumor development. Six days after tumor inoculation, 64 mice with tumor size ranging from 50-100 mm^3 (average tumor size 71 mm^3) were selected and assigned into 8 groups using stratified randomization with 8 mice per group based upon their tumor volumes. The treatments were started from the day of randomization (defined as D0), Group 1 was treated with Vehicle (Tween 80:Ethanol:Saline—5:5:90 v/v/v), S.C. QD*20 days, Group 2 was treated with Compound 1 at 1 mpk S.C. QD*28 days, Group 3 was treated with Compound 1 at 0.5 mpk S.C. QD*28 days, Group 4 was treated with Compound 1 at 1.4 mpk S.C. 5-days ON 2-days OFF×4 cycles, Group 5 was treated with Compound 1 at 0.7 mpk S.C. 5-days ON 2-days OFF×4 cycles, Group 6 was treated with Compound 1 at 3 mpk qd×5, followed by 1 mpk qd×23, S.C. QD, Group 7 was treated with Compound 1 at 1.5 mpk qd×5, followed by 0.5 mpk qd×23, S.C. QD and Group 8 was treated with Compound 1 at 1.4 mpk 10-days ON 4-days OFF×2 cycles, S.C.
Species: Mus musculus; Strain: C57BL/6; Age: 6-8 weeks; Sex: female; Body weight (at treatment start): 16-20 g.
The MC-38 tumor cells were maintained in vitro as a monolayer culture in DMEM medium supplemented with 10% heat inactivated fetal bovine serum and 100 μg/mL penicillin streptomycin at 37° C. in an atmosphere of 5% CO2 in air. The tumor cells were routinely subcultured twice weekly by trypsin-EDTA treatment. The cells growing to a confluency around 70%-80% were harvested and counted for tumor inoculation. The cultured MC-38 were harvested, re-suspended in base medium at a density of 1×10^7 cells/mL with viability>90%. Each mouse was inoculated subcutaneously at the right flank with 1×10^6 cells in 0.1 ml base medium for tumor development.
The treatments were started on day 6 after tumor inoculation when the tumor size reached 50-100 mm^3 (average tumor size 71 mm^3). Each group consisted of 8 tumor-bearing mice. The testing article was administrated to the mice at a dosing volume of 10 mL/Kg according to the predetermined regimen as shown in Table 3-1.
Tumor sizes were measured three times a week in two dimensions using a caliper, and the volume expressed in mm^3 using the formula: V=0.5 a×b^2 where a and b are the long and short diameters of the tumor, respectively. The tumor sizes were then used for the calculations of both tumor growth inhibition (TGI) and T/C values.
TGI is calculated for each group using the formula: […]
TVTreatment_DayN is the average tumor volume of a treatment group on a given day, TVTreatment_Day0 is the average tumor volume of the treatment group on the first day of treatment, TVVehicle_DayN is the average tumor volume of the vehicle control group on a given day, and TVVehicle_Day0 is the average tumor volume of the vehicle group on the first day of treatment.
The T/C value (in percent) is an indication of antitumor effectiveness, T/C (%)=RTVTreatment/RTVControl×100% (RTVTreatment: the mean RTV of the treatment group; RTVControl: the mean RTV of the vehicle treated group). RTV (relative tumor volume)=TVDayN/TVDay0. TVDayN and TVDay0 is the tumor volume on day N and Day 0 respectively. T/C (%)≤42% is considered as significant antitumor activity and <10% is considered as highly significant antitumor activity by the National Cancer Institute criteria.
Relative change of body weight (RCBW) of each mouse was calculated according to the following formula: […]
Animal survival curve: When an individual animal reached to the termination endpoint (TV>2000 mm^3), the mouse was euthanized. The time from treatment initiation to the termination was deemed as its survival time. Survival curve was plotted by Kaplan-Meier method. Median survival time (MST) was calculated for each group. Increase of life span (ILS) was calculated according to the following formula: […]
ILS (%)>25% is considered as a biologically significant survival benefit. […]

CC(=O)N[C@@H](Cc1c[nH]c2ccccc12)C(=O)N[C@@H](CCC(=O)C=[N+]=[N-])C(=O)OC(C)C [Compound 1, Isopropyl (S)-2-((S)-2-acetamido-3-(1H-indol-3-yl)propanamido)-6-diazo-5-oxohexanoate]
Tumor volume (Mean ± SEM) (Day 20, Group 3: 0.5 mg/kg qdx28, sc): 7 ± 1 mm^3
Tumor volume (Mean ± SEM) (Day 20, Group 4: 1.4 mg/kg 5-days ON 2-days OFF x 4 cycles, sc): 0 ± 0 mm^3
Tumor volume (Mean ± SEM) (Day 20, Group 5: 0.7 mg/kg 5-days ON 2-days OFF x 4 cycles, sc): 2 ± 1 mm^3
Tumor volume (Mean ± SEM) (Day 20, Group 6: 3 mpk qdx5 followed by 1 mpk qdx23, sc): 5 ± 2 mm^3
Tumor volume (Mean ± SEM) (Day 20, Group 7: 1.5 mpk qdx5 followed by 0.5 mpk qdx23, sc): 5 ± 1 mm^3
Tumor volume (Mean ± SEM) (Day 20, Group 8: 1.4 mg/kg 10-days ON 4-days OFF x 2 cycles, sc): 6 ± 2 mm^3
Tumor volume (Mean ± SEM) (Day 22, Group 2: 1 mg/kg qdx28, sc): 2 ± 1 mm^3
Tumor volume (Mean ± SEM) (Day 22, Group 3: 0.5 mg/kg qdx28, sc): 6 ± 2 mm^3
Tumor volume (Mean ± SEM) (Day 22, Group 4: 1.4 mg/kg 5-days ON 2-days OFF x 4 cycles, sc): 0 ± 0 mm^3
Tumor volume (Mean ± SEM) (Day 22, Group 5: 0.7 mg/kg 5-days ON 2-days OFF x 4 cycles, sc): 2 ± 1 mm^3
Tumor volume (Mean ± SEM) (Day 22, Group 6: 3 mpk qdx5 followed by 1 mpk qdx23, sc): 3 ± 1 mm^3
Tumor volume (Mean ± SEM) (Day 22, Group 7: 1.5 mpk qdx5 followed by 0.5 mpk qdx23, sc): 6 ± 1 mm^3
Tumor volume (Mean ± SEM) (Day 22, Group 8: 1.4 mg/kg 10-days ON 4-days OFF x 2 cycles, sc): 5 ± 2 mm^3
Tumor volume (Mean ± SEM) (Day 25, Group 2: 1 mg/kg qdx28, sc): 5 ± 1 mm^3
Tumor volume (Mean ± SEM) (Day 25, Group 3: 0.5 mg/kg qdx28, sc): 6 ± 1 mm^3
Tumor volume (Mean ± SEM) (Day 25, Group 4: 1.4 mg/kg 5-days ON 2-days OFF x 4 cycles, sc): 0 ± 0 mm^3
Tumor volume (Mean ± SEM) (Day 25, Group 5: 0.7 mg/kg 5-days ON 2-days OFF x 4 cycles, sc): 2 ± 1 mm^3
Tumor volume (Mean ± SEM) (Day 25, Group 6: 3 mpk qdx5 followed by 1 mpk qdx23, sc): 2 ± 1 mm^3
Tumor volume (Mean ± SEM) (Day 25, Group 7: 1.5 mpk qdx5 followed by 0.5 mpk qdx23, sc): 4 ± 1 mm^3
Tumor volume (Mean ± SEM) (Day 25, Group 8: 1.4 mg/kg 10-days ON 4-days OFF x 2 cycles, sc): 5 ± 2 mm^3
Tumor volume (Mean ± SEM) (Day 27, Group 2: 1 mg/kg qdx28, sc): 6 ± 2 mm^3
Tumor volume (Mean ± SEM) (Day 27, Group 3: 0.5 mg/kg qdx28, sc): 7 ± 1 mm^3
Tumor volume (Mean ± SEM) (Day 27, Group 4: 1.4 mg/kg 5-days ON 2-days OFF x 4 cycles, sc): 0 ± 0 mm^3
Tumor volume (Mean ± SEM) (Day 27, Group 5: 0.7 mg/kg 5-days ON 2-days OFF x 4 cycles, sc): 1 ± 1 mm^3
Tumor volume (Mean ± SEM) (Day 27, Group 6: 3 mpk qdx5 followed by 1 mpk qdx23, sc): 2 ± 1 mm^3
Tumor volume (Mean ± SEM) (Day 27, Group 7: 1.5 mpk qdx5 followed by 0.5 mpk qdx23, sc): 4 ± 1 mm^3
Tumor volume (Mean ± SEM) (Day 27, Group 8: 1.4 mg/kg 10-days ON 4-days OFF x 2 cycles, sc): 6 ± 2 mm^3
Tumor volume (Mean ± SEM) (Day 29, Group 2: 1 mg/kg qdx28, sc): 17 ± 11 mm^3
Tumor volume (Mean ± SEM) (Day 29, Group 3: 0.5 mg/kg qdx28, sc): 13 ± 3 mm^3
Tumor volume (Mean ± SEM) (Day 29, Group 4: 1.4 mg/kg 5-days ON 2-days OFF x 4 cycles, sc): 1 ± 1 mm^3
Tumor volume (Mean ± SEM) (Day 29, Group 5: 0.7 mg/kg 5-days ON 2-days OFF x 4 cycles, sc): 2 ± 1 mm^3
Tumor volume (Mean ± SEM) (Day 29, Group 6: 3 mpk qdx5 followed by 1 mpk qdx23, sc): 5 ± 3 mm^3
Tumor volume (Mean ± SEM) (Day 29, Group 7: 1.5 mpk qdx5 followed by 0.5 mpk qdx23, sc): 10 ± 3 mm^3
Tumor volume (Mean ± SEM) (Day 29, Group 8: 1.4 mg/kg 10-days ON 4-days OFF x 2 cycles, sc): 17 ± 5 mm^3
Tumor volume (Mean ± SEM) (Day 32, Group 2: 1 mg/kg qdx28, sc): 92 ± 47 mm^3
Tumor volume (Mean ± SEM) (Day 32, Group 3: 0.5 mg/kg qdx28, sc): 45 ± 9 mm^3
Tumor volume (Mean ± SEM) (Day 32, Group 4: 1.4 mg/kg 5-days ON 2-days OFF x 4 cycles, sc): 13 ± 7 mm^3
Tumor volume (Mean ± SEM) (Day 32, Group 5: 0.7 mg/kg 5-days ON 2-days OFF x 4 cycles, sc): 20 ± 12 mm^3
Tumor volume (Mean ± SEM) (Day 32, Group 6: 3 mpk qdx5 followed by 1 mpk qdx23, sc): 51 ± 35 mm^3
Tumor volume (Mean ± SEM) (Day 32, Group 7: 1.5 mpk qdx5 followed by 0.5 mpk qdx23, sc): 44 ± 12 mm^3
Tumor volume (Mean ± SEM) (Day 32, Group 8: 1.4 mg/kg 10-days ON 4-days OFF x 2 cycles, sc): 73 ± 19 mm^3
Tumor volume (Mean ± SEM) (Day 34, Group 2: 1 mg/kg qdx28, sc): 190 ± 81 mm^3
Tumor volume (Mean ± SEM) (Day 34, Group 3: 0.5 mg/kg qdx28, sc): 121 ± 20 mm^3
Tumor volume (Mean ± SEM) (Day 34, Group 4: 1.4 mg/kg 5-days ON 2-days OFF x 4 cycles, sc): 37 ± 21 mm^3
Tumor volume (Mean ± SEM) (Day 34, Group 5: 0.7 mg/kg 5-days ON 2-days OFF x 4 cycles, sc): 32 ± 16 mm^3
Tumor volume (Mean ± SEM) (Day 34, Group 6: 3 mpk qdx5 followed by 1 mpk qdx23, sc): 114 ± 79 mm^3
Tumor volume (Mean ± SEM) (Day 34, Group 7: 1.5 mpk qdx5 followed by 0.5 mpk qdx23, sc): 112 ± 24 mm^3
Tumor volume (Mean ± SEM) (Day 34, Group 8: 1.4 mg/kg 10-days ON 4-days OFF x 2 cycles, sc): 168 ± 43 mm^3
Tumor volume (Mean ± SEM) (Day 36, Group 2: 1 mg/kg qdx28, sc): 454 ± 212 mm^3
Tumor volume (Mean ± SEM) (Day 36, Group 3: 0.5 mg/kg qdx28, sc): 285 ± 42 mm^3
Tumor volume (Mean ± SEM) (Day 36, Group 4: 1.4 mg/kg 5-days ON 2-days OFF x 4 cycles, sc): 100 ± 47 mm^3
Tumor volume (Mean ± SEM) (Day 36, Group 5: 0.7 mg/kg 5-days ON 2-days OFF x 4 cycles, sc): 125 ± 63 mm^3
Tumor volume (Mean ± SEM) (Day 36, Group 6: 3 mpk qdx5 followed by 1 mpk qdx23, sc): 288 ± 174 mm^3
Tumor volume (Mean ± SEM) (Day 36, Group 7: 1.5 mpk qdx5 followed by 0.5 mpk qdx23, sc): 364 ± 69 mm^3
Tumor volume (Mean ± SEM) (Day 36, Group 8: 1.4 mg/kg 10-days ON 4-days OFF x 2 cycles, sc): 479 ± 121 mm^3
Tumor volume (Mean ± SEM) (Day 39, Group 2: 1 mg/kg qdx28, sc): 1109 ± 398 mm^3
Tumor volume (Mean ± SEM) (Day 39, Group 3: 0.5 mg/kg qdx28, sc): 592 ± 61 mm^3
Tumor volume (Mean ± SEM) (Day 39, Group 4: 1.4 mg/kg 5-days ON 2-days OFF x 4 cycles, sc): 238 ± 72 mm^3
Tumor volume (Mean ± SEM) (Day 39, Group 5: 0.7 mg/kg 5-days ON 2-days OFF x 4 cycles, sc): 242 ± 114 mm^3
Tumor volume (Mean ± SEM) (Day 39, Group 6: 3 mpk qdx5 followed by 1 mpk qdx23, sc): 723 ± 345 mm^3
Tumor volume (Mean ± SEM) (Day 39, Group 7: 1.5 mpk qdx5 followed by 0.5 mpk qdx23, sc): 904 ± 174 mm^3
Tumor volume (Mean ± SEM) (Day 39, Group 8: 1.4 mg/kg 10-days ON 4-days OFF x 2 cycles, sc): 945 ± 260 mm^3
Tumor volume (Mean ± SEM) (Day 41, Group 3: 0.5 mg/kg qdx28, sc): 1718 ± 136 mm^3
Tumor volume (Mean ± SEM) (Day 41, Group 4: 1.4 mg/kg 5-days ON 2-days OFF x 4 cycles, sc): 420 ± 129 mm^3
Mice completely tumor free on D67 ("cured") (Group 5: 0.7 mpk S.C. 5-days ON 2-days OFF×4 cycles, 8 mice per group): Four
